# Results taken from patent publication US20230028880A1, “CD38-BINDING AGENTS AND USES THEREOF” (Biohaven Therapeutics Ltd., priority 2019, published 2023).
# Several values for one entry are separate records, joined by “and”; a condition that tells them apart may be missing. Equal entries are not always repeated. Entries after “also recorded” stand apart in the source; their conditions may differ.
# Legend:
# Assay type in all cases: cell-based
# SUDHL-4 cells = assay: CIML NK cell SUDHL-4 cell ADCC assay
# Description: CIML NK cell SUDHL-4 cell ADCC assay: SUDHL-4 cells were labelled with CFSE and re-suspended in XVIVO15 media containing 20% Human serum. Cells were aliquoted at 10,000 cells/well, 18 ul/well of 96 well V-bottom plates. NK cells (in PBS 5% HSA) were added at a 9:1 ratio (90,000 NK cell per well) in an equal volume (18 ul per well). Co-cultures were incubated overnight at 37° C. in a 5% CO2 atmosphere. Next day, cells were washed, and stained with the following reagents: Near Infra-Red Fixable viability dye (Thermo Fisher), CD3 FITC (Biolegend) and CD56 PE (Biolegend). Percentages of Dead SUDHL-4 cells were calculated by gating on CFSE+ cells that are also positive for Near Infrared Live Dead dye.
# Baseline activity was assessed by using NK cells that have not been stimulated with cytokine cocktail (non-CIML NK cells). FIG. 6 represents frequencies of dead SUDHL-4 cells in NK-SUDHL-4 cell co-cultures after 18 hours of incubation.
# [1] = tested on: NK cells (CIML and non-CIML); assay: CIML NK cell fratricide assay
# Description: PBMC isolation: Leukopheresis product from a donor with body mass index (BMI) between 19-25, under 50 years old, not on immuno-suppressive drugs for at least 2 weeks with an estimated PBMC cell count of >10^10 was obtained from Key Biologics (subject ID 20982200) and transported at ambient temperature. Leukopheresis bag was wiped down with 70% EtOH, a small slit was made and contents were pipetted off into tubes. Leukopak contents were diluted 1:1 with PBS without Ca++/Mg++ and 20 ml of this mixture was layered on top of 25 mL of Ficoll. Tubes were then centrifuged at 400 g for 30 minutes without brakes. PBMCs were harvested from the interface into separate tubes, and tubes were filled to 50 mL with PBS. Cells were centrifuged for 10 min at 120 g to get rid of platelets. Supernatant was poured off and cells were re-suspended in RPMI 10% FBS at a concentration of 7-10×10^6 cells/ml. Cells were cultured overnight at 37 C in a 5% CO2 atmosphere until NK cell isolation.
# NK cell isolation: PBMC were centrifuged at 400 g for 10 min and re-suspended in EasySep buffer. NK cells were isolated using NK cell isolation kits from […] Technologies according to kit's manufacturers' instructions. NK cell purity and phenotype was assessed by trypan Blue and flow cytometry using the following antibody cocktail: anti-CD56PE, CD3 APC, and viability was determined using staining with Trypan Blue exclusion dye, and by flow cytometry using Near Infra-Red Fixable viability dye (Thermo Fisher).
# CIML NK cell generation: Isolated NK cells were re-suspended at 2×10^6 cells/ml in XVIVO 10% Human Serum and the following concentrations IL-15 (50 ng/ml), IL-12 (10 ng/ml), IL-18 (50 ng/ml) for 12 to 18 hrs. Cells were harvested and tested for purity and viability by Trypan Blue staining and by Flow Cytometry using Near Infra-Red Fixable viability dye (Thermo Fisher), CD3 APC (Biolegend) and CD56 PE (Biolegend).
# The stock was then serially diluted in 100% DMSO to achieve 1000× concentrations to be used in the experiment. The 100% DMSO compound stock was then added to a tube and media was added to a volume of 1000 ul per 1 ul of compound and vortexed for 1 minute to ensure a homogenous mixture.
# Similarly, NK cell pellets were re-suspended in Daratumumab control antibody solutions (a range of 3 ug/ml to 0.01 ug/ml in PBS 5% HSA). Resulting NK cell suspensions were aliquoted at 55 ul/well of a 96 wellv-bottom plate and were incubated for 2 hrs at 37° C. in a 5% CO2 atmosphere.
# Daudi cells [2] = assay: KILR ADCC killing assay: KILR-transfected Daudi cells with purified NK cells (% dead cells); settings: for % dead cells, KILR ADCC killing assay: KILR Daudi cells with purified NK cells, duplicate columns
# Source text: In some embodiments, CD38-ABT ARMs bind to target cells and antibodies, e.g., human antibodies. In some embodiments, such ternary structures present antibodies to effector cells such as NK cell and bind to, e.g., CD16a receptors. […] Daudi cells were transfected with KILR reporter construct (DiscoverX #97-0002). An attenuated lentivirus was designed to deliver a Moloney Murine Leukemia Virus (MMLV) engineered to drive expression of a housekeeping gene tagged with Enhanced ProLabel (ePL) a beta-Galactosidase (beta-gal) reporter fragment. This construct was designed to remain inside cells. Death leads to the release of the KILR reporter protein into the medium. Detection reagent (DiscoverX #97-0001L) contained the complementing beta-gal reporter fragment enzyme acceptor (EA). The two components combined to generate a chemiluminescent signal.
# Daudi cells [3] = assay: Ternary binding assay: recruitment of PE-labeled human IgG1k to Daudi cells (flow cytometry, MFI); settings: duplicate columns
# How it was run: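 Daudi cells, 100,000 per well, were suspended in flow buffer (1% BSA, 0.5 mM EDTA, PBS) containing 11.1 ug/mL PE-labeled human IgG1k and incubated with ½-log compound dilutions (8–12 concentrations) for 30 min at 37 °C. After two washes with 0.5% Tween 20 buffer, mean fluorescence was read by flow cytometry and fitted with a four-parameter variable-slope model.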
smiles,measurement,setting,value
CCCCC[C@@H]1NC(=O)[C@H](CCCNC(=N)N)NC(=O)[C@H](C)NC(=O)CSC[C@@H](C(=O)NCCOCCOCCOCCOCCOCCOCCn2nnc3c2CCC2C(CC3)C2COC(=O)N2CCC(C(=O)NCC(=O)N[C@H](CCC(=O)N[C@H](CCC(=O)N[C@H](CCC(=O)O)C(=O)N[C@H](CCC(=O)N[C@H](CCC(=O)NCC(=O)NCC(=O)N[C@@H](CC(=O)O)C(=O)N[C@H]3CSSC[C@@H](C(=O)N[C@H](C(=O)O)[C@@H](C)O)NC(=O)[C@H](Cc4c[nH]c5ccccc45)NC(=O)[C@H](C(C)C)NC(=O)[C@H](CC(C)C)NC(=O)[C@H](CCC(=O)O)NC(=O)CNC(=O)[C@H](CC(C)C)NC(=O)[C@H](Cc4c[nH]cn4)NC(=O)[C@H](Cc4c[nH]c5ccccc45)NC(=O)[C@H](C)NC3=O)C(=O)O)C(=O)O)C(=O)O)C(=O)O)CC2)NC(=O)[C@H](CC(=O)O)NC(=O)[C@H](CCCCC)NC(=O)[C@H](Cc2ccc(-c3ccccc3)cc2)NC(=O)[C@H](CC(C)C)NC(=O)[C@H](C(C)C)NC(=O)CNC(=O)[C@H](CC(=O)O)NC(=O)[C@H](Cc2c[nH]cn2)NC(=O)[C@H](Cc2ccc(O)cc2)NC1=O (stereo partly drawn) [I-17],increase in killing over background (DMSO-treated control),"SUDHL-4 cells; CIML NK cells in combination with I-17, SUDHL-4 cells, 18 hours",66%
same,killing of SUDHL-4 cells in NK-SUDHL-4 co-cultures,SUDHL-4 cells; FIG. 6,can effectively kill cancer cells
same,NK cell fratricide / toxicity,"[1]; 2 hr incubation, up to the highest doses (FIG. 5)",no apparent NK cell fratricide was detected; also recorded: low toxicity
same,increase in the percentage of dead NK cells,"[1]; CIML NK cells, 2 hours post-incubation, daratumumab 3 ug/ml or 20.1 nM, I-17 +/-IVIG",no increase
same,increase in dead NK cells (I-17 IvIG vs DMSO IVIG control),"[1]; non-CIML NK cells, 2 h, I-17 25 uM with IVIG 500 ug/ml",0.93%
same,increase in dead NK cells over DMSO treated control,"[1]; non-CIML NK cells, 2 h, I-17 at 25 uM vs DMSO control",1.7%
same,EC50,"Daudi cells [2]; KILR Daudi cells, purified NK cells, one set of experiments (FIG. 3)",5.9 nM
same,"% dead cells, KILR ADCC killing assay",Daudi cells [2]; compound 0.3 nM,5.8% and 5.1%
same,"% dead cells, KILR ADCC killing assay",Daudi cells [2]; compound 1 nM,5.6%
same,"% dead cells, KILR ADCC killing assay",Daudi cells [2]; compound 3 nM,6.4% and 7.1%
same,"% dead cells, KILR ADCC killing assay",Daudi cells [2]; compound 10 nM,7% and 7.7%
same,"% dead cells, KILR ADCC killing assay",Daudi cells [2]; compound 100 nM,8.9% and 10.1%
same,"% dead cells, KILR ADCC killing assay",Daudi cells [2]; compound 300 nM,8.5% and 9.6%
same,"MFI, recruitment of PE-labeled human IgG1k to Daudi cells",Daudi cells [3]; compound 0.03 nM,2516 and 2391
same,"MFI, recruitment of PE-labeled human IgG1k to Daudi cells",Daudi cells [3]; compound 0.1 nM,2322 and 2622
same,"MFI, recruitment of PE-labeled human IgG1k to Daudi cells",Daudi cells [3]; compound 0.3 nM,2387 and 2457
same,"MFI, recruitment of PE-labeled human IgG1k to Daudi cells",Daudi cells [3]; compound 1 nM,3272 and 2451
same,"MFI, recruitment of PE-labeled human IgG1k to Daudi cells",Daudi cells [3]; compound 3 nM,2516 and 2680
same,"MFI, recruitment of PE-labeled human IgG1k to Daudi cells",Daudi cells [3]; compound 10 nM,7119 and 4086
same,"MFI, recruitment of PE-labeled human IgG1k to Daudi cells",Daudi cells [3]; compound 30 nM,3869 and 5244
same,"MFI, recruitment of PE-labeled human IgG1k to Daudi cells",Daudi cells [3]; compound 100 nM,7575 and 6333
same,"MFI, recruitment of PE-labeled human IgG1k to Daudi cells",Daudi cells [3]; compound 300 nM,7514 and 8562
same,"MFI, recruitment of PE-labeled human IgG1k to Daudi cells",Daudi cells [3]; compound 1000 nM,10015 and 9697
same,"MFI, recruitment of PE-labeled human IgG1k to Daudi cells",Daudi cells [3]; compound 3000 nM,9069 and 9922
